Reference: paper PMC3961306, “Comparison of the Cancer Gene Targeting and Biochemical Selectivities of All Targeted Kinase Inhibitors Approved for Clinical Use” (PLoS ONE, 2014)

Legend:
Test in all cases: Kinase profiling in a biochemical assay panel (mobility shift assays and ELISA), %-inhibition at 1 μM; selectivity entropy
[1] = target: panel of more than 300 wild-type and mutant kinases (313 kinase panel) (Homo sapiens, UniProt Q15119)
[2] = target: panel of more than 300 wild-type and mutant kinases (313 kinase panel) (Homo sapiens, UniProt P51451)
[3] = target: panel of more than 300 wild-type and mutant kinases (313 kinase panel) (Homo sapiens, UniProt Q05655)
[4] = target: panel of more than 300 wild-type and mutant kinases (313 kinase panel) (Homo sapiens, UniProt Q08345)
[5] = target: T1, panel of more than 300 wild-type and mutant kinases (313 kinase panel) (Homo sapiens, UniProt Q8IWQ3)
T1 sequence (Q8IWQ3 1-736): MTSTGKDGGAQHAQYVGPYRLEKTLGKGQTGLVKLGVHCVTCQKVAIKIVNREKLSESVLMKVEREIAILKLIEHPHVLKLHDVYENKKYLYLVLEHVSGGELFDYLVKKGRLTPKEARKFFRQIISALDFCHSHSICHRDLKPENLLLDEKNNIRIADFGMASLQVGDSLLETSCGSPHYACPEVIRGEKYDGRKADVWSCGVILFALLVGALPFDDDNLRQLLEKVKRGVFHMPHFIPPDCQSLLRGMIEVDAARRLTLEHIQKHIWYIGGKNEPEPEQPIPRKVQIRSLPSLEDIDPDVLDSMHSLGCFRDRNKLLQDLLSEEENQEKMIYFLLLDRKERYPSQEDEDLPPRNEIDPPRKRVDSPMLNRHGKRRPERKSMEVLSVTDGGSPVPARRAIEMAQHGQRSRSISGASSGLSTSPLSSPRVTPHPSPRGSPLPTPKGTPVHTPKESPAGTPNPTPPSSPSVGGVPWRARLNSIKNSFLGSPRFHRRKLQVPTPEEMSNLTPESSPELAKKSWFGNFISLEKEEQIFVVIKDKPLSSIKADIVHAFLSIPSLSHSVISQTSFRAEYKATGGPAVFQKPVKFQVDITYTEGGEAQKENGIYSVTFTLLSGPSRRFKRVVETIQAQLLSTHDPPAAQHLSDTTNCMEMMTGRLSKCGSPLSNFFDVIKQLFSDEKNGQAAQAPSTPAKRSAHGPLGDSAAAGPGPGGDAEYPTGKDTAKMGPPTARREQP

[6] = target: T2, panel of more than 300 wild-type and mutant kinases (313 kinase panel) (Homo sapiens, UniProt P54753)
T2 sequence (P54753 34-998): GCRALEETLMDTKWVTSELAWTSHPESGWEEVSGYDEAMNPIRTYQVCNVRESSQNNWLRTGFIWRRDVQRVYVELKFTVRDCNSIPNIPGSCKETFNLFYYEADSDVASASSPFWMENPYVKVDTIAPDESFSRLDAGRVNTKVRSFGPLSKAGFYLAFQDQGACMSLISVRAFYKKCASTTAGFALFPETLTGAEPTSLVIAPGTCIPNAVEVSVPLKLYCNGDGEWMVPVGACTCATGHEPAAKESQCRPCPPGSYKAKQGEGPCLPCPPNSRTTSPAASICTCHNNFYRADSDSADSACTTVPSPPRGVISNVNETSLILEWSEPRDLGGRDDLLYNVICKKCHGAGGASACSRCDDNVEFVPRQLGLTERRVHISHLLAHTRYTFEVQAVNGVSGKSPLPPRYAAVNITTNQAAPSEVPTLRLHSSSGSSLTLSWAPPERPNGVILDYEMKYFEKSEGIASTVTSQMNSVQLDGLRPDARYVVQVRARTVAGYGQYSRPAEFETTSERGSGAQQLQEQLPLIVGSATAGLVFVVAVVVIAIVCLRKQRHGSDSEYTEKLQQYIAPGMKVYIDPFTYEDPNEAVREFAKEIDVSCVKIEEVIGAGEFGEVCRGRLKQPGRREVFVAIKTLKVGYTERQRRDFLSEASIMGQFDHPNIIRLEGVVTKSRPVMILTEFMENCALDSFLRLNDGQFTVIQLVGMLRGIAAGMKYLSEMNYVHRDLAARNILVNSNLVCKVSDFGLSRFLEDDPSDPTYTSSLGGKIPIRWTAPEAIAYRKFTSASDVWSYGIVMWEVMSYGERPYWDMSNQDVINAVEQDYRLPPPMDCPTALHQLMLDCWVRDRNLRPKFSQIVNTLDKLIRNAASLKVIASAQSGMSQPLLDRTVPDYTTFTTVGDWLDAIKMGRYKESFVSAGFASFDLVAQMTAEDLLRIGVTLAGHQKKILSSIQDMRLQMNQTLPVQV

[7] = target: panel of more than 300 wild-type and mutant kinases (313 kinase panel) (Homo sapiens, UniProt Q9UM73, L1196M)
[8] = kinase ALK(L1196M), 1 μM compound

Row | Compound | %-inhibition of PDHK2 ([1]; kinase PDHK2, 1 μM) [%] | %-inhibition, BLK ([2]; kinase BLK, 1 μM compound) [%] | %-inhibition of PKCδ ([3]; kinase PKCδ, 1 μM) [%] | %-inhibition of DDR1 ([4]; kinase DDR1, compound at 1 μM) [%] | %-inhibition, BRSK2 ([5]; kinase BRSK2, 1 μM compound) [%] | %-inhibition of EPHB3 ([6]; kinase EPHB3, compound at 1 μM) [%] | %-inhibition, ALK(L1196M) [7, 8] [%] | %-inhibition, BLK ([2]; 1 µM) [%] | %-inhibition of EPHB3 ([6]; 1 µM) [%] | %-inhibition of PKCδ ([3]; 1 µM) [%] | %-inhibition of DDR1 ([4]; 1 µM) [%] | %-inhibition of PDHK2 ([1]; 1 µM) [%] | %-inhibition, BRSK2 ([5]; 1 µM) [%] | %-inhibition, ALK(L1196M) ([7]; 1 µM) [%]
1 | CN(C)C/C=C/C(=O)Nc1cc2c(Nc3ccc(F)c(Cl)c3)ncnc2cc1O[C@H]1CCOC1 [afatinib] | -2.76 |  |  |  |  |  |  |  |  |  |  |  |  | 
2 | COc1cc(Nc2c(C#N)cnc3cc(OCCCN4CCN(C)CC4)c(OC)cc23)c(Cl)cc1Cl [bosutinib] | -3.29 | 84 | 63 | 97 | -12 |  |  |  |  |  |  |  |  | 
3 | COc1cc2nccc(Oc3ccc(NC(=O)C4(C(=O)Nc5ccc(F)cc5)CC4)cc3)c2cc1OC [cabozantinib] | -1.54 | 100 | -0.835 | 102 | 5.62 | 85 | 4.25 |  |  |  |  |  |  | 
4 | C[C@@H](Oc1cc(-c2cnn(C3CCNCC3)c2)cnc1N)c1c(Cl)ccc(F)c1Cl [crizotinib] | -3.51 |  | -1.14 | 97 | 8 | 5 |  |  |  |  |  |  |  | 
5 | CC(C)(C)c1nc(-c2cccc(NS(=O)(=O)c3c(F)cccc3F)c2F)c(-c2ccnc(N)n2)s1 [dabrafenib] | 0.108 | 80 | -6 | 96 | 30 | 3 |  |  |  |  |  |  |  | 
6 | Cc1nc(Nc2ncc(C(=O)Nc3c(C)cccc3Cl)s2)cc(N2CCN(CCO)CC2)n1 [dasatinib] |  | 103 |  |  |  |  |  |  |  |  |  |  |  | 
7 | C#Cc1cccc(Nc2ncnc3cc(OCCOC)c(OCCOC)cc23)c1 [erlotinib] |  |  |  |  |  |  |  | 31 | 5 | 5 | 93 | -4 | 3.75 | 18
8 | CO[C@H]1C[C@@H]2CC[C@@H](C)[C@@](O)(O2)C(=O)C(=O)N2CCCC[C@H]2C(=O)O[C@H]([C@H](C)C[C@@H]2CC[C@@H](OCCO)[C@H](OC)C2)CC(=O)[C@H](C)/C=C(\C)[C@@H](O)[C@@H](OC)C(=O)[C@H](C)C[C@H](C)/C=C/C=C/C=C/1C [everolimus] | 4 | -7 | -10 | -2.76 | -0.919 | -5 | -3.63 |  |  |  |  |  |  | 
9 | O=S(=O)(c1cccc2cnccc12)N1CCCNCC1 [fasudil] | -0.108 | -2.48 | 19 | -1.19 | 6 | -4 | -4 |  |  |  |  |  |  | 
10 | CS(=O)(=O)CCNCc1ccc(-c2ccc3ncnc(Nc4ccc(OCc5cccc(F)c5)c(Cl)c4)c3c2)o1 [lapatinib] | -5 | 24 | -1.67 | 33 | 3.58 | 5 | -3 |  |  |  |  |  |  | 
11 | Cc1ccc(C(=O)Nc2ccc(CN3CCN(C)CC3)c(C(F)(F)F)c2)cc1C#Cc1cnc2cccnn12 [ponatinib] | -0.22 | 97 | 50 |  | -11 | 101 |  |  |  |  |  |  |  | 
12 | N#CC[C@H](C1CCCC1)n1cc(-c2ncnc3[nH]ccc23)cn1 [ruxolitinib] | -4 | -1 | 2 |  | -12 |  |  |  | 2.73 |  |  |  |  | 79
13 | CCN(CC)CCNC(=O)c1c(C)[nH]c(/C=C2\C(=O)Nc3ccc(F)cc32)c1C [sunitinib] |  | 96 |  |  |  |  |  |  |  |  |  |  |  | 
14 | COc1cc2c(Nc3ccc(Br)cc3F)ncnc2cc1OCC1CCN(C)CC1 [vandetanib] | 0.22 | 89 | -5.39 | 100 | -10 | 8 |  |  |  |  |  |  |  | 
